Columns and labels:
Assay in all cases: Kinase selectivity, scanMAX Kinase assay panel (DiscoverX), % control at 1 uM
Type in all cases: binding
[1] = target: T1, scanMAX Kinase assay panel (Homo sapiens, UniProt O43318); details: TAK1; 1 uM; read-out: Percent Control (%)
T1 construct: purchased DiscoverX
T1 sequence (O43318 1-606): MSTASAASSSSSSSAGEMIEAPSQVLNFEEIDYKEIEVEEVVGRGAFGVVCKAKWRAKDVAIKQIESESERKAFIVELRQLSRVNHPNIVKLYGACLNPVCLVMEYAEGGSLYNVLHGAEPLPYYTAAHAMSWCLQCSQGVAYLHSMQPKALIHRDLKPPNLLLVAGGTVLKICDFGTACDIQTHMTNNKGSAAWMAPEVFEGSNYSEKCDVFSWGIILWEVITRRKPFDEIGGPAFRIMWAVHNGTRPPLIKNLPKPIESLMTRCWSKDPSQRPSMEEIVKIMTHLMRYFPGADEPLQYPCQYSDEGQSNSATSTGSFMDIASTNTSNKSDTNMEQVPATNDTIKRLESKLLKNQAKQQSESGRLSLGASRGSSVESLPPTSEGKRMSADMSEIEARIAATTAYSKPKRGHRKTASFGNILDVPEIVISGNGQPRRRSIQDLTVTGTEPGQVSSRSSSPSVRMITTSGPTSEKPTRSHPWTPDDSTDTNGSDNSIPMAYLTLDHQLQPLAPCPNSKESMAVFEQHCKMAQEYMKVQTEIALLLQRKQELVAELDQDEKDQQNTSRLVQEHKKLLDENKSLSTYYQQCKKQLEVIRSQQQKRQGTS
Procedure, shortened: (§1)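 1 uM cpd (DMSO) per kinase; % ctrl = [cpd − pos ctrl]/[neg ctrl − pos ctrl] × 100; hit if <35.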

[2] = target: T2, scanMAX Kinase assay panel (Homo sapiens, UniProt P00533, L858R/T790M); details: EGFR (L858R, T790M); 1 uM; read-out: Percent Control (%)
T2 construct: purchased DiscoverX
T2 sequence (P00533 25-1210 T790M/L858R): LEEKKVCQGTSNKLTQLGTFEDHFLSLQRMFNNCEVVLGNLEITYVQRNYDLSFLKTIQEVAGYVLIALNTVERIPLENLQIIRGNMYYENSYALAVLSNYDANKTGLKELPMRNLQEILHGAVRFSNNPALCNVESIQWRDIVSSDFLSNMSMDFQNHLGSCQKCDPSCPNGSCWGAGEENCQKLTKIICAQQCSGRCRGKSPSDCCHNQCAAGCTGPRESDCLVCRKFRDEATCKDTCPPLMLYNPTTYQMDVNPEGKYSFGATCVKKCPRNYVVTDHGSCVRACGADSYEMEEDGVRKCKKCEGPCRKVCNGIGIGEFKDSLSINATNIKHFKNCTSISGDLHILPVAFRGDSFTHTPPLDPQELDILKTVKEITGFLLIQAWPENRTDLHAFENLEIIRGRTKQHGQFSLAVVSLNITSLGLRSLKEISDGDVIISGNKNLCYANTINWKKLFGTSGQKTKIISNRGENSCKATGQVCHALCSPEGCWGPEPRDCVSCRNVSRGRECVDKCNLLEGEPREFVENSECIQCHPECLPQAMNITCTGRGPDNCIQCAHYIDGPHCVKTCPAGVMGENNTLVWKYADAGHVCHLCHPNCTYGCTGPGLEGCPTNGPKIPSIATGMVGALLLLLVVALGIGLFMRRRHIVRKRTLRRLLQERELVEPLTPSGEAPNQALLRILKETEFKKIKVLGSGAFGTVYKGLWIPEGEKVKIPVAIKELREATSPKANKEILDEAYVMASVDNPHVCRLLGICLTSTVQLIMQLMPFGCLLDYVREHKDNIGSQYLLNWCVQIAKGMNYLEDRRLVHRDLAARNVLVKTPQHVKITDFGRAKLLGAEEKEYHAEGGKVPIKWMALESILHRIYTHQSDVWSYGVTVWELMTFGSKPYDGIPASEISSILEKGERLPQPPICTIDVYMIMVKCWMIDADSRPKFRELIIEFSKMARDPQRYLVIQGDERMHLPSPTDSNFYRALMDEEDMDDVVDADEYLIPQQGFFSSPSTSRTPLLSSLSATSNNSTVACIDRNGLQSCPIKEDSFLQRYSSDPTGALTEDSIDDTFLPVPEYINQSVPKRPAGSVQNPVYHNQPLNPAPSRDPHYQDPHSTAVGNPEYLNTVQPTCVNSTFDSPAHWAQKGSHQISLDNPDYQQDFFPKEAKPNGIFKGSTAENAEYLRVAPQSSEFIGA
Procedure, shortened: as §1

[3] = target: T3, scanMAX Kinase assay panel (Homo sapiens, UniProt P36888, K663Q); details: FLT3 (K663Q); 1 uM; read-out: Percent Control (%)
T3 construct: purchased DiscoverX
T3 sequence (P36888 27-993 K663Q): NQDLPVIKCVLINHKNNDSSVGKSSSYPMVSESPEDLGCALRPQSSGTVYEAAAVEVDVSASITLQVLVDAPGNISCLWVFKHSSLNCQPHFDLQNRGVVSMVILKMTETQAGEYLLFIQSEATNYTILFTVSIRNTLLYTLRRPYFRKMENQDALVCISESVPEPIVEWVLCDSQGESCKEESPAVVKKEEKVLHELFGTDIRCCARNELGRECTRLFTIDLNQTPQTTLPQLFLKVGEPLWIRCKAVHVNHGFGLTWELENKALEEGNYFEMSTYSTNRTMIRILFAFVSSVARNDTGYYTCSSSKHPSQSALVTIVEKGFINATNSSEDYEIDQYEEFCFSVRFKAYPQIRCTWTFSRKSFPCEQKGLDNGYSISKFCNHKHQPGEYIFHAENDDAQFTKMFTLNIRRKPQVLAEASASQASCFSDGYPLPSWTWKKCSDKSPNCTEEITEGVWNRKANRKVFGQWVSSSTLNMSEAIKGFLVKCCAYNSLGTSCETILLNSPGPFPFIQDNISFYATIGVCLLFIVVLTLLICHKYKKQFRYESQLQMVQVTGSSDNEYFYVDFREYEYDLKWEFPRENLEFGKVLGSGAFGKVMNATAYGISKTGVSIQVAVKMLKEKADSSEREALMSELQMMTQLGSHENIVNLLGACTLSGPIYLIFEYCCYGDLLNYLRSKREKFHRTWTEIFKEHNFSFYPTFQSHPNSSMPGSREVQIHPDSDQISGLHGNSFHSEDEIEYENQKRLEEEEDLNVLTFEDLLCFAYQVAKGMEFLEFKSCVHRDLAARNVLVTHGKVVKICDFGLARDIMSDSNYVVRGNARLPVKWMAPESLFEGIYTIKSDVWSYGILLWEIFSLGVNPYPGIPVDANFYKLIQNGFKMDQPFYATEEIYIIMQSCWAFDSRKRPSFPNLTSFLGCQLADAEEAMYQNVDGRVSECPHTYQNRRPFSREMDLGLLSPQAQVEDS
Procedure, shortened: as §1

[4] = target: T4, scanMAX Kinase assay panel (Homo sapiens, UniProt Q8TF76); details: HASPIN; 1 uM; read-out: Percent Control (%)
T4 construct: purchased DiscoverX
T4 sequence (Q8TF76 1-798): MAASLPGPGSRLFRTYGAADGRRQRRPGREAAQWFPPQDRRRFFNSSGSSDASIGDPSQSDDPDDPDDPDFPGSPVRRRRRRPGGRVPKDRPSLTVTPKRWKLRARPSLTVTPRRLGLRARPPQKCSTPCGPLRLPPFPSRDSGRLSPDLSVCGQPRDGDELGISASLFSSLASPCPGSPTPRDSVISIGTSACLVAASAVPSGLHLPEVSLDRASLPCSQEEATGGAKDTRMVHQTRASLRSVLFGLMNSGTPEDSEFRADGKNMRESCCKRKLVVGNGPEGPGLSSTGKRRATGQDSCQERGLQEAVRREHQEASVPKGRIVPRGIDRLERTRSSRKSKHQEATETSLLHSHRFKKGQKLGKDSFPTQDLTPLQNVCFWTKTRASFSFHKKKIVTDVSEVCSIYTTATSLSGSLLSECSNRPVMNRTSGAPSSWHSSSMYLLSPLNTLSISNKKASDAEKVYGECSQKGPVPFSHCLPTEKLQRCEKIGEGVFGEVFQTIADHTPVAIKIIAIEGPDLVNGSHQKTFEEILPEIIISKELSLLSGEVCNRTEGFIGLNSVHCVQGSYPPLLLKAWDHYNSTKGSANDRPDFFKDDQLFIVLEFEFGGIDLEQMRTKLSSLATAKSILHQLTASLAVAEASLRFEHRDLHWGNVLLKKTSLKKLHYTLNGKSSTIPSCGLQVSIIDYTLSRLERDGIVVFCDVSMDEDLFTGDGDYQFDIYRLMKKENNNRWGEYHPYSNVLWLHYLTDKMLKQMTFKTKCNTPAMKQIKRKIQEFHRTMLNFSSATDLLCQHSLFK
Procedure, shortened: as §1

[5] = target: T5, scanMAX Kinase assay panel (Plasmodium falciparum, UniProt P62344); details: PFCDPK1 (P. falciparum); 1 uM; read-out: Percent Control (%)
T5 construct: purchased DiscoverX
T5 sequence (P62344 whole entry): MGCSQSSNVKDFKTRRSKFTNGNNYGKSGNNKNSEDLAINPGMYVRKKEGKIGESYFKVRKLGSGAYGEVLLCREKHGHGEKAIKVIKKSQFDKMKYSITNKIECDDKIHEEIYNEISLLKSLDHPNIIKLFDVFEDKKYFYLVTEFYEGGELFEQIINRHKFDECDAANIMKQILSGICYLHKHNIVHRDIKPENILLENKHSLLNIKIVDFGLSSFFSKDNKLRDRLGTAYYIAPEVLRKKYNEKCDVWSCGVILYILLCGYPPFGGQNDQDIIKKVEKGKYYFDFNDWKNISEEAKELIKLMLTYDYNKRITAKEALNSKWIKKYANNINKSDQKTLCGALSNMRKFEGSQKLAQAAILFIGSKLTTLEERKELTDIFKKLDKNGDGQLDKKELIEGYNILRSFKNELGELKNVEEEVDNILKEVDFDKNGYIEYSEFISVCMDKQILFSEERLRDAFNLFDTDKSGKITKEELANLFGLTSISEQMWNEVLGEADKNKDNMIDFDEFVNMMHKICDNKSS
Procedure, shortened: as §1

Compound: Cc1ccc(C(=O)Nc2ccc(CN3CCN(C)CC3)c(C(F)(F)F)c2)cc1C#Cc1cnc2c(Nc3cnn(C)c3)cccn12 [Example 1, 4-methyl-3-((8-((1-methyl-1H-pyrazol-4-yl)amino)imidazo[1,2-a]pyridin-3-yl)ethynyl)-N-(4-((4-methylpiperazin-1-yl)methyl)-3-(trifluoromethyl)phenyl)benzamide]
- remaining binding at 1 µM [1]: 0%
- remaining binding at 1 µM [2]: 17%
- remaining binding at 1 µM [3]: 2%
- remaining binding at 1 µM [4]: 80%
- remaining binding at 1 µM [5]: 1%

Compound: Cc1cn(-c2cc(NC(=O)c3ccc(C)c(C#Cc4cnc5c(Nc6cnn(C)c6)cccn45)c3)cc(C(F)(F)F)c2)cn1 [Example 12, 4-methyl-N-(3-(4-methyl-1H-imidazol-1-yl)-5-(trifluoromethyl)phenyl)-3-((8-((1-methyl-1H-pyrazol-4-yl)amino)imidazo[1,2-a]pyridin-3-yl)ethynyl)benzamide]
- remaining binding at 1 µM [1]: 14%
- remaining binding at 1 µM [2]: 69%
- remaining binding at 1 µM [3]: 1%
- remaining binding at 1 µM [4]: 100%
- remaining binding at 1 µM [5]: 55%

Compound: Cc1ccc(NC(=O)C2(C(=O)Nc3ccc(F)cc3)CC2)cc1C#Cc1cnc2c(Nc3cnn(C(C)C)c3)cccn12 [Example 78]
- remaining binding at 1 µM [1]: 76%
- remaining binding at 1 µM [2]: 84%
- remaining binding at 1 µM [3]: 74%
- remaining binding at 1 µM [4]: 85%
- remaining binding at 1 µM [5]: 97%

— patent publication US10870647B2, “Imidazopyridine derivative, method for preparing same, and pharmaceutical composition containing same as active ingredient for preventing or treating cancer” (DAEGU-GYEONGBUK MEDICAL INNOVATION FOUNDATION, priority 2016, dated 2020)
